Measurements as given in patent publication US10195189B2, “2-phenethenyltetrahydro isoquinolines useful as anti-HIV compounds” (priority 2014, dated 2019).

What follows are molecules tested on HIV-1 NL4-3 viral clone expressing Renilla luciferase (assay: microbe, parasite or virus in culture). Settings: Human immunodeficiency virus 1, NL43, MT2, 96 h.
Type: cell-based
Procedure, shortened: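 MT-2 cells (2×10^4/well) were infected at MOI 0.027 with Renilla-luciferase HIV-1 NL4-3 alongside 3-fold compound dilutions for 96 h. Spread was read by EnduRen luminescence and supernatant infectivity on TZM-bl (48 h, MUG fluorescence). Mock-infected cytotoxicity used AlamarBlue. % inhibition versus solvent was fitted by 4-parameter logistic (0–100% constrained) for EC50/CC50.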

Structure (SMILES) | EC50
COc1cc2c(cc1OCc1ccccc1)CCNC2/C=C/c1ccc2occc2c1 (centres unmarked) [BN, 1-[(E)-2-(benzofuran-5-yl)vinyl]-6-benzyloxy-7-methoxy-1,2,3,4-tetrahydroisoquinoline] | 840 nM
COc1cc2c(cc1OCc1ccccc1)CCNC2/C=C/c1ccc(F)cc1C (centres unmarked) [Example X, 6-benzyloxy-1-[(E)-2-(4-fluoro-2-methyl-phenyl)vinyl]-7-methoxy-1,2,3,4-tetrahydroisoquinoline] | 620 nM
COc1cc2c(cc1OCc1ccccc1)CCNC2/C=C/c1ccccc1C(=O)O (centres unmarked) [ES, 2-[(E)-2-(6-benzyloxy-7-methoxy-1,2,3,4-tetrahydroisoquinolin-1-yl)vinyl]benzoic acid] | 8620 nM
COc1cc2c(cc1OCc1ccccc1)CCNC2/C=C/c1ccc(N2CCCCC2)cc1 (centres unmarked) [EA, 6-Benzyloxy-7-methoxy-1-[(E)-2-[4-(1-piperidyl)phenyl]vinyl]-1,2,3,4-tetrahydroisoquinoline] | 2100 nM
COc1cc2c(cc1OCc1ccccc1)CCNC2/C=C/c1ccccc1NC(=O)OC(C)(C)C (centres unmarked) [CW, tert-Butyl N-[2-[(E)-2-(6-benzyloxy-7-methoxy-1,2,3,4-tetrahydroisoquinolin-1-yl)vinyl]phenyl]carbamate] | 5400 nM
COc1cc2c(cc1OCc1ccccc1)CCNC2/C=C/c1c[nH]c2ccccc12 (centres unmarked) [CJ, 6-Benzyloxy-1-[(E)-2-(1H-indol-3-yl)vinyl]-7-methoxy-1,2,3,4-tetrahydroisoquinoline] | 470 nM
COc1ccc(/C=C/C2NCCc3cc(OCc4ccccc4)c(OC)cc32)cc1 (centres unmarked) [BJ, 6-Benzyloxy-7-methoxy-1-[(E)-2-(4-methoxyphenyl)vinyl]-1,2,3,4-tetrahydroisoquinoline] | 477 nM
COc1ccc(/C=C/C2NCCc3cc(OCc4ccccc4)c(OC)cc32)c(C)c1 (centres unmarked) [Example AG, 6-benzyloxy-7-methoxy-1-[(E)-2-(4-methoxy-2-methyl-phenyl)vinyl]-1,2,3,4-tetrahydroisoquinoline] | 77.1 nM
COc1cc2c(cc1OCc1ccccc1)CCNC2/C=C/c1ccc(-n2ccnc2C)cc1 (centres unmarked) [DM, (E)-6-(benzyloxy)-7-methoxy-1-(4-(2-methyl-1H-imidazol-1-yl)styryl)-1,2,3,4-tetrahydroisoquinoline] | 1520 nM
COc1cc2c(cc1OC)C(/C=C/c1cc(OCc3ccccc3)c(OC)cc1C)NCC2 (centres unmarked) [Example C, 1-[(E)-2-(5-Benzyloxy-4-methoxy-2-methyl-phenyl)vinyl]-6,7-dimethoxy-1,2,3,4-tetrahydroisoquinoline] | 9760 nM
CCOC(=O)c1coc(-c2ccc(/C=C/C3NCCc4cc(OCc5ccccc5)c(OC)cc43)cc2)n1 (centres unmarked) [EE, Ethyl 2-[4-[(E)-2-(6-benzyloxy-7-methoxy-1,2,3,4-tetrahydroisoquinolin-1-yl)vinyl]phenyl]oxazole-4-carboxylate] | 990 nM
